According to patent US6727244B2, “Mammalian metabolites of a tachykinin receptor antagonist” (Merck & Co., Inc., priority 2000, dated 2004):

Tests used:
Format in all cases: in vitro ADME
[1] = glucuronidation in liver microsomes from humans; settings: human liver microsomes, UDPGA, 37° C. for 60 min
Description: (§1) All liver microsomal and cytosolic fractions were prepared using the following procedure. Thawed livers were homogenized with 2 volumes of 50 mM Tris-buffer (pH 7.5) containing 1.15% KCl. For microsomal and cytosolic preparations, the homogenate was centrifuged for 20 min at 9,000×g and the resulting supernatant was centrifuged for 60 min at 105,000×g. The resulting cytosolic fractions were re-centrifuged at 105,000×g for 60 min. Fractions of cytosol were aliquoted into small tubes and stored at −70° C. Subsequently, the microsomal pellets were washed with 10 mM EDTA containing 1.15% KCl and were centrifuged at 105,000×g for 60 min. […] Protein concentrations were determined by a modified Lowry assay (Smith et al., 1985). The specific cytochrome P450 content in each microsomal preparation was measured as described by Omura and Sato, J. Biol. Chem. 239, 2370-2378 (1964).
(§2) The typical reaction mixture (500 μl) containing 10 mM MgCl2, 2% glycerol, 0.02% lubrol PX, 3 mM UDPGA, 1 mg liver microsomes, 50 mM bis-tris propane buffer (pH 8.5) and ˜10 or 25 μM compound (in 15 μl methanol) was incubated at 37° C. for 30-60 min. After incubation, the reactions were terminated by the addition of four volumes of acetonitrile and processed and analyzed by HPLC as mentioned above.

[2] = glucuronidation in liver microsomes from rats; settings: rat liver microsomes, UDPGA, 37° C. for 60 min
Description: as §1, §2

[3] = oxidative metabolism in liver microsomes from rats; settings: rat liver microsomes, 15 min incubation
Description: All liver microsomal and cytosolic fractions were prepared using the following procedure. Thawed livers were homogenized with 2 volumes of 50 mM Tris-buffer (pH 7.5) containing 1.15% KCl. For microsomal and cytosolic preparations, the homogenate was centrifuged for 20 min at 9,000×g and the resulting supernatant was centrifuged for 60 min at 105,000×g. The resulting cytosolic fractions were re-centrifuged at 105,000×g for 60 min. Fractions of cytosol were aliquoted into small tubes and stored at −70° C. Subsequently, the microsomal pellets were washed with 10 mM EDTA containing 1.15% KCl and were centrifuged at 105,000×g for 60 min. Washed microsomes were resuspended in 10 mM potassium phosphate buffer (pH 7.4) containing 250 mM sucrose, aliquoted into small tubes, and stored at −70° C. Protein concentrations were determined by a modified Lowry assay (Smith et al., 1985). The specific cytochrome P450 content in each microsomal preparation was measured as described by Omura and Sato, J. Biol. Chem. 239, 2370-2378 (1964). […]
Method A was conducted on a Shimadzu HPLC system (Shimadzu Scientific Instruments Inc., Columbia Md.). The parent compounds and their metabolites were monitored directly using a radiometric detector (INUS Systems Inc. Tampa, Fla.) and Ultima-Flow M (Packard Instrument Co., Meridan Conn.) as scintillant at a flow rate of 3 mL/min. […]

conversion to the corresponding glucuronide [1]: ~20%
conversion to the corresponding glucuronide [2]: ~20%
parent compound remained after incubation [3]: ~50%
Structure (SMILES): C[C@@H](O[C@H]1OCCN[C@H]1c1ccc(F)cc1)c1cc(C(F)(F)F)cc(C(F)(F)F)c1 [Metabolite M-1, (2R,3S)-2-[(1R)-1-[3,5-bis(trifluoromethyl)phenyl]ethoxy]-3-(4-fluorophenyl)morpholine]
